According to publication PMC10126264, “Synergistic effect and antibiofilm activity of the antimicrobial peptide K11 with conventional antibiotics against multidrug-resistant and extensively drug-resistant Klebsiella pneumoniae” (Frontiers in Cellular and Infection Microbiology, 2023):
≈ marks a conversion by molar mass, not a printed value. Read-outs that look alike come from different tables or passages of the source. Residues, ends and D or L forms follow the SMILES beside them.

Key:
[1] = system: K. pneumoniae ATCC BAA-1706
Experimental: The ability of K11 to inhibit bacterial growth was determined by the broth microdilution method ([Clinical and Laboratory Standards Institute, 2018]). Briefly, a series of 2-fold dilutions of K11 were prepared from 1,024 to 2 µg/mL in cation-adjusted Mueller-Hinton broth (CAMHB), Then 50 µL of each peptide dilution was added to each well of polystyrene 96-well U-bottom microplates. The log-phase cultures were adjusted to 0.5 McFarland standard and diluted 1:100 in CAMHB to provide the density of 10^6 CFU/mL. Consequently, 50 µL of diluted bacterial suspension was added to wells containing 50 µL of peptide solution, followed by incubation for 20-24 h at 37°C. […] To evaluate MBC, a volume of 10 μL was taken from each well with no visible growth, inoculated on Mueller-Hinton agar (MHA) plates, and incubated at 37°C. The MBC was defined as the lowest concentration of antimicrobials that killed at least 99.9% of the initial inoculums ([Clinical and Laboratory Standards Institute, 1999]).

[2] = system: K. pneumoniae reference strains; assay: MIC determination, broth microdilution; assay type: cell-based, Klebsiella pneumoniae; settings: K. pneumoniae reference strains (ATCC BAA-1706, ATCC 70063)
[3] = system: K. pneumoniae ATCC BAA-1706; remark: listed apart in the source
Experimental: (§1) The temperature and pH stabilities of K11 were evaluated by the MIC assay, as mentioned above. To assess the thermal stability, Aliquots of 2 mg/mL of K11 in sterile deionized water were incubated for 1 h at 25°C, 37°C, 50°C, 70°C, and 90°C. Then, a series of 2-fold dilutions of K11 were prepared in CAMHB, 50 µL of each peptide solution was transferred to the well of a 96-well microplate. An equal volume of K. pneumoniae ATCC 70063 or K. pneumoniae ATCC BAA-1706 (10^6 CFU/mL) suspension was added, and the mixture was incubated at 37°C for 20-24 h ([Li et al., 2021]). To examine the pH stability, the pH was adjusted to range from 2.0 to 10.0 with the following 100 mM buffers: glycine-HCl buffer (pH 2.0), sodium acetate buffer (pH 4.0), sodium phosphate buffer (pH 6.0), Tris-HCl buffer (pH 8.0), and glycine-NaOH buffer (pH 10.0). Then, 2 mg/mL of K11 was prepared in buffers with different pH values (pH 2.0-10.0) and incubated for 1 h at 37°C. Afterward, the pH of the reaction solution was neutralized by HCl or NaOH to terminate the reaction. The serially diluted peptide solutions were conducted, then treated against the tested strains, and the mixtures were incubated at 37°C for 20-24 h ([Cao et al., 2015]; [Zong et al., 2016]). The MICs were observed.

K. pneumoniae ATCC 70063 = system: K. pneumoniae ATCC 70063
Experimental: as §1

[4] = K11 2 mg/mL in 100 mM Tris-HCl buffer pH 8.0, 1 h at 37°C, neutralized, then MIC
[5] = K11 2 mg/mL in 100 mM glycine-HCl buffer pH 2.0, 1 h at 37°C, neutralized, then MIC
[6] = K11 2 mg/mL in 100 mM glycine-NaOH buffer pH 10.0, 1 h at 37°C, neutralized, then MIC
[7] = K11 2 mg/mL in 100 mM sodium acetate buffer pH 4.0, 1 h at 37°C, neutralized, then MIC
[8] = K11 2 mg/mL in 100 mM sodium phosphate buffer pH 6.0, 1 h at 37°C, neutralized, then MIC
[9] = K11 2 mg/mL in sterile deionized water incubated 1 h at 25°C (control), then MIC in CAMHB
[10] = K11 2 mg/mL in sterile deionized water incubated 1 h at 37°C, then MIC in CAMHB
[11] = K11 2 mg/mL in sterile deionized water incubated 1 h at 50°C, then MIC in CAMHB
[12] = K11 2 mg/mL in sterile deionized water incubated 1 h at 70°C, then MIC in CAMHB
[13] = K11 2 mg/mL in sterile deionized water incubated 1 h at 90°C, then MIC in CAMHB

## CC[C@H](C)[C@H](NC(=O)[C@H](Cc1ccccc1)NC(=O)[C@H](CO)NC(=O)[C@H](CCCCN)NC(=O)[C@H](Cc1c[nH]c2ccccc12)NC(=O)[C@@H](N)CCCCN)C(=O)N[C@@H](CCCCN)C(=O)N[C@@H](CCCCN)C(=O)N[C@@H](CC(C)C)C(=O)N[C@H](C(=O)N[C@@H](CCCCN)C(=O)N[C@@H](CCCCN)C(=O)N[C@@H](Cc1ccccc1)C(=O)N[C@@H](CC(C)C)C(=O)N[C@@H](Cc1c[nH]cn1)C(=O)N[C@@H](CO)C(=O)N[C@@H](C)C(=O)N[C@@H](CCCCN)C(=O)N[C@@H](CCCCN)C(=O)N[C@@H](Cc1ccccc1)C(N)=O)[C@@H](C)O [K11] (H-KWKSFIKKLTKKFLHSAKKF-NH2)
[1]; broth microdilution in CAMHB, 20-24 h at 37°C
  MIC: 2 µg/mL (≈ 0.802 µM)
[1]; wells with no visible growth plated on MHA, 37°C, kills at least 99.9% of inoculum
  MBC: 2 µg/mL (≈ 0.802 µM)
[2]
  MIC, range over strains: 2 to 4 µg/mL
[3]; [4]
  Antimicrobial activity MIC: 2 µg/mL
[3]; [5]
  Antimicrobial activity MIC: 2 µg/mL
[3]; [6]
  Antimicrobial activity MIC: 2 µg/mL
[3]; [7]
  Antimicrobial activity MIC: 2 µg/mL
[3]; [8]
  Antimicrobial activity MIC: 2 µg/mL
[3]; [9]
  Antimicrobial activity MIC: 2 µg/mL
[3]; [10]
  Antimicrobial activity MIC: 2 µg/mL
[3]; [11]
  Antimicrobial activity MIC: 2 µg/mL
[3]; [12]
  Antimicrobial activity MIC: 2 µg/mL
[3]; [13]
  Antimicrobial activity MIC: 2 µg/mL
[3]; pH 7 (control)
  Antimicrobial activity MIC: 2 µg/mL
K. pneumoniae ATCC 70063; [4]
  Antimicrobial activity MIC: 4 µg/mL
K. pneumoniae ATCC 70063; [5]
  Antimicrobial activity MIC: 4 µg/mL
K. pneumoniae ATCC 70063; [6]
  Antimicrobial activity MIC: 4 µg/mL
K. pneumoniae ATCC 70063; [7]
  Antimicrobial activity MIC: 4 µg/mL
K. pneumoniae ATCC 70063; [8]
  Antimicrobial activity MIC: 4 µg/mL
K. pneumoniae ATCC 70063; [9]
  Antimicrobial activity MIC: 4 µg/mL
K. pneumoniae ATCC 70063; [10]
  Antimicrobial activity MIC: 4 µg/mL
K. pneumoniae ATCC 70063; [11]
  Antimicrobial activity MIC: 4 µg/mL
K. pneumoniae ATCC 70063; [12]
  Antimicrobial activity MIC: 4 µg/mL
K. pneumoniae ATCC 70063; [13]
  Antimicrobial activity MIC: 4 µg/mL
K. pneumoniae ATCC 70063; pH 7 (control)
  Antimicrobial activity MIC: 4 µg/mL
